Common to all, as to assay type: cell-based
The test system of assay [1] is Mino cells. Description: Antiproliferative effect, MTS cell viability assay, Mino cells. As to conditions: Homo sapiens, MINO, Mino mantle cell lymphoma cells; read-out: IC50 (anti-proliferation) Mino cells. In outline:
(§1)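 Absorbance at 490 nm of formazan, formed by metabolically active cells from MTS tetrazolium, served as the viability measure after a 72 h treatment across a 0.001–10 μM concentration series plus untreated control.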
For orientation: Formazan colour is commonly taken as a measure of viable cells.

Assay [2] deals with JeKo-1 cells. Description: Antiproliferative effect, MTS cell viability assay, JeKo-1 cells. As to conditions: Homo sapiens; JeKo-1 mantle cell lymphoma cells; read-out: IC50 (anti-proliferation) JeKO-1 cells. The gist of the method: as §1
For assay [3], the target named is BTK (Homo sapiens, UniProt Q06187). Description: BTK degradation, DC50 and Dmax of Table 1 (cell line not given). The arrangement: endogenous in cells. As to conditions: for DC50: concentration giving 50% reduction of BTK expression level.
BTK, sequence (Q06187 whole entry): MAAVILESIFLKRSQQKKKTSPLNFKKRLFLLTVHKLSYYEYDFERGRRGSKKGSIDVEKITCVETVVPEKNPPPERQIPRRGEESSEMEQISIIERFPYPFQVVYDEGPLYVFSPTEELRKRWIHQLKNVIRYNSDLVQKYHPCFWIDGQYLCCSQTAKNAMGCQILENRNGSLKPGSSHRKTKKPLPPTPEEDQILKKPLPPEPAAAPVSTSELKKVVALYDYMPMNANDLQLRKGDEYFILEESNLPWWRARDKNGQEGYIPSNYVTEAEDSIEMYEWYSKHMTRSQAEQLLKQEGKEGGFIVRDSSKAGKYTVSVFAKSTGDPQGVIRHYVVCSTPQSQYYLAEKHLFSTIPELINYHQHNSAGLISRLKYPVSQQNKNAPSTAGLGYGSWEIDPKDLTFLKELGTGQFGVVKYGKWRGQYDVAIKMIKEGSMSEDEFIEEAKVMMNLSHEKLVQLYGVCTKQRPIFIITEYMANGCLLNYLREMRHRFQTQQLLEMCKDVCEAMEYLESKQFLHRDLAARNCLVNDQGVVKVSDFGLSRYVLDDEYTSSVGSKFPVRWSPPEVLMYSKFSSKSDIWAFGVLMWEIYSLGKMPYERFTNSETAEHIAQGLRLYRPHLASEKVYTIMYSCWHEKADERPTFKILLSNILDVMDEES

In the case of `Nc1ncnc2c1c(-c1ccc(Oc3ccccc3)cc1)nn2[C@@H]1CCCN(C2CCN(CCCN3CCC(c4ccc5c(c4)CN(C4CCC(=O)NC4=O)C5=O)CC3)CC2)C1` (stereo partly drawn) [Compound 154, 3-(5-(1-(3-((R)-3-(4-amino-3-(4-phenoxyphenyl)-1H-pyrazolo[3,4-d]pyrimidin-1-yl)-[1,4′-bipiperidin]-1′-yl)propyl)piperidin-4-yl)-1-oxoisoindolin-2-yl)piperidine-2,6-dione], the IC50 in assay [1] and in assay [2] was more than 10000 nM each time. In assay [3], the Dmax is more than 75%. The DC50 in assay [3] was more than 50 nM.
In the case of `Nc1ncnc2c1c(-c1ccc(Oc3ccccc3)cc1)nn2[C@@H]1CCCN(C2CCN(CCCC3CCN(c4ccc5c(c4)C(=O)N(C4CCC(=O)NC4=O)C5=O)CC3)CC2)C1` (stereo partly drawn) [Compound 155, 5-(4-(3-((R)-3-(4-amino-3-(4-phenoxyphenyl)-1H-pyrazolo[3,4-d]pyrimidin-1-yl)-[1,4′-bipiperidin]-1′-yl)propyl)piperidin-1-yl)-2-(2,6-dioxopiperidin-3-yl)isoindoline-1,3-dione], the IC50 in assay [1] was more than 10000 nM. For the same compound, the IC50 in assay [2] was more than 10000 nM. Further, in assay [3], the Dmax is more than 50% and the DC50 was more than 50 nM.
With `Nc1ncnc2c1c(-c1ccc(Oc3ccccc3)cc1)nn2[C@@H]1CCCN(C2CCN(CCCC3CCN(c4ccc5c(c4)CN(C4CCC(=O)NC4=O)C5=O)CC3)CC2)C1` (stereo partly drawn) [Compound 156, 3-(5-(4-(3-((R)-3-(4-amino-3-(4-phenoxyphenyl)-1H-pyrazolo[3,4-d]pyrimidin-1-yl)-[1,4′-bipiperidin]-1′-yl)propyl)piperidin-1-yl)-1-oxoisoindolin-2-yl)piperidine-2,6-dione], in assay [1], the IC50 is more than 10000 nM. Further, the IC50 in assay [2] is more than 10000 nM. In assay [3], the maximal degradation (Dmax) is more than 50% and the DC50 is more than 50 nM.
Consider `Nc1ncnc2c1c(-c1ccc(Oc3ccccc3)cc1)nn2[C@@H]1CCCN(C2CCN(C(=O)N3CCC(c4ccc5c(c4)C(=O)N(C4CCC(=O)NC4=O)C5=O)CC3)CC2)C1` (stereo partly drawn) [Compound 157, 5-(1-((R)-3-(4-amino-3-(4-phenoxyphenyl)-1H-pyrazolo[3,4-d]pyrimidin-1-yl)-[1,4′-bipiperidine]-1′-carbonyl)piperidin-4-yl)-2-(2,6-dioxopiperidin-3-yl)isoindoline-1,3-dione], for which, in assay [1], the IC50 is more than 10000 nM. For the same compound, the IC50 in assay [2] is more than 10000 nM. For the same compound, in assay [3], the Dmax was more than 50% and the DC50 was more than 50 nM.
As to `Nc1ncnc2c1c(-c1ccc(Oc3ccccc3)cc1)nn2[C@@H]1CCCN(C2CCN(C(=O)N3CCC(c4ccc5c(c4)CN(C4CCC(=O)NC4=O)C5=O)CC3)CC2)C1` (stereo partly drawn) [Compound 158, 3-(5-(1-((R)-3-(4-amino-3-(4-phenoxyphenyl)-1H-pyrazolo[3,4-d]pyrimidin-1-yl)-[1,4′-bipiperidine]-1′-carbonyl)piperidin-4-yl)-1-oxoisoindolin-2-yl)piperidine-2,6-dione], in assay [1], the IC50 is more than 10000 nM. The IC50 in assay [2] was more than 10000 nM. In assay [3], this compound had a Dmax of more than 50% and a DC50 of more than 50 nM.
Turning to `Nc1ncnc2c1c(-c1ccc(Oc3ccccc3)cc1)nn2[C@@H]1CCCN(C2CCN(C(=O)N3CCN(c4ccc5c(c4)CN(C4CCC(=O)NC4=O)C5=O)CC3)CC2)C1` (stereo partly drawn) [Compound 160, 3-(5-(4-((R)-3-(4-amino-3-(4-phenoxyphenyl)-1H-pyrazolo[3,4-d]pyrimidin-1-yl)-[1,4′-bipiperidine]-1′-carbonyl)piperazin-1-yl)-1-oxoisoindolin-2-yl)piperidine-2,6-dione], the results for the IC50 in assay [1] and in assay [2] were 1000 to 10000 nM and more than 10000 nM, respectively. In addition, the Dmax in assay [3] is more than 50%. The compound further displayed a DC50 in assay [3] of more than 50 nM.
Turning to `Nc1ncnc2c1c(-c1ccc(Oc3ccccc3)cc1)nn2[C@@H]1CCCN(C2CCN(C(=O)N3CCC(C4CCN(c5ccc6c(c5)CN(C5CCC(=O)NC5=O)C6=O)CC4)CC3)CC2)C1` (stereo partly drawn) [Compound 164, 3-(5-(1′-((R)-3-(4-amino-3-(4-phenoxyphenyl)-1H-pyrazolo[3,4-d]pyrimidin-1-yl)-[1,4′-bipiperidine]-1′-carbonyl)-[4,4′-bipiperidin]-1-yl)-1-oxoisoindolin-2-yl)piperidine-2,6-dione], the IC50 in assay [1] is 1000 to 10000 nM. The IC50 in assay [2] was more than 10000 nM. In assay [3], this compound gave a Dmax of more than 75% and a DC50 of 10 to 50 nM.
On to `Nc1ncnc2c1c(-c1ccc(Oc3ccccc3)cc1)nn2[C@@H]1CCCN(C2CCN(C(=O)N3CCC(N4CCC(c5ccc6c(c5)C(=O)N(C5CCC(=O)NC5=O)C6=O)CC4)CC3)CC2)C1` (stereo partly drawn) [Compound 165, 5-(1′-((R)-3-(4-amino-3-(4-phenoxyphenyl)-1H-pyrazolo[3,4-d]pyrimidin-1-yl)-[1,4′-bipiperidine]-1′-carbonyl)-[1,4′-bipiperidin]-4-yl)-2-(2,6-dioxopiperidin-3-yl)isoindoline-1,3-dione], for which the figures for the IC50 in assay [1] and in assay [2] were 1000 to 10000 nM and more than 10000 nM, respectively. The compound further had a Dmax in assay [3] of more than 75%. In addition, in assay [3], the DC50 fell in the range of 10 to 50 nM.
On to `Nc1ncnc2c1c(-c1ccc(Oc3ccccc3)cc1)nn2[C@@H]1CCCN(C2CCN(C(=O)N3CCC(N4CCC(c5ccc6c(c5)CN(C5CCC(=O)NC5=O)C6=O)CC4)CC3)CC2)C1` (stereo partly drawn) [Compound 166, 3-(5-(1′-((R)-3-(4-amino-3-(4-phenoxyphenyl)-1H-pyrazolo[3,4-d]pyrimidin-1-yl)-[1,4′-bipiperidine]-1′-carbonyl)-[1,4′-bipiperidin]-4-yl)-1-oxoisoindolin-2-yl)piperidine-2,6-dione], for which the IC50 in assay [1] lay within 1000 to 10000 nM. In assay [2], the IC50 was more than 10000 nM. In assay [3], this compound registered a Dmax of more than 90% and a DC50 of 10 to 50 nM.
On to `Nc1ncnc2c1c(-c1ccc(Oc3ccccc3)cc1)nn2[C@@H]1CCCN(C2CCN(C(=O)N3CCC(CC4CCN(c5ccc6c(c5)C(=O)N(C5CCC(=O)NC5=O)C6=O)CC4)CC3)CC2)C1` (stereo partly drawn) [Compound 167, 5-(4-((1-((R)-3-(4-amino-3-(4-phenoxyphenyl)-1H-pyrazolo[3,4-d]pyrimidin-1-yl)-[1,4′-bipiperidine]-1′-carbonyl)piperidin-4-yl)methyl)piperidin-1-yl)-2-(2,6-dioxopiperidin-3-yl)isoindoline-1,3-dione], for which the IC50 in assay [1] and in assay [2] was 1000 to 10000 nM each time. The Dmax in assay [3] was more than 90%. In assay [3], this compound had a DC50 of 10 to 50 nM.
For the compound `Nc1ncnc2c1c(-c1ccc(Oc3ccccc3)cc1)nn2[C@@H]1CCCN(C2CCN(C(=O)N3CCC(CC4CCN(c5ccc6c(c5)CN(C5CCC(=O)NC5=O)C6=O)CC4)CC3)CC2)C1` (stereo partly drawn) [Compound 168, 3-(5-(4-((1-((R)-3-(4-amino-3-(4-phenoxyphenyl)-1H-pyrazolo[3,4-d]pyrimidin-1-yl)-[1,4′-bipiperidine]-1′-carbonyl)piperidin-4-yl)methyl)piperidin-1-yl)-1-oxoisoindolin-2-yl)piperidine-2,6-dione], in assay [1], the IC50 was less than 1000 nM. In assay [2], the IC50 is 1000 to 10000 nM. In assay [3], this compound came in with a Dmax of more than 90% and a DC50 of 10 to 50 nM.
`Nc1ncnc2c1c(-c1ccc(Oc3ccccc3)cc1)nn2[C@@H]1CCCN(C2CCN(C(=O)N3CCC(CN4CCN(c5ccc6c(c5)CN(C5CCC(=O)NC5=O)C6=O)CC4)CC3)CC2)C1` (stereo partly drawn) [Compound 170, 3-(5-(4-((1-((R)-3-(4-amino-3-(4-phenoxyphenyl)-1H-pyrazolo(3,4-d)pyrimidin-1-yl)-(1,4′-bipiperidine)-1′-carbonyl)piperidin-4-yl)methyl)piperazin-1-yl)-1-oxoisoindolin-2-yl)piperidine-2,6-dione]: the IC50 in assay [1] and in assay [2] was 1000 to 10000 nM each time. Besides, the Dmax in assay [3] is more than 90%. Further, in assay [3], the DC50 fell in the range of 10 to 50 nM.
As to `Nc1ncnc2c1c(-c1ccc(Oc3ccccc3)cc1)nn2[C@@H]1CCCN(C2CCN(C(=O)N3CCN(CC4CCN(c5ccc6c(c5)C(=O)N(C5CCC(=O)NC5=O)C6=O)CC4)CC3)CC2)C1` (stereo partly drawn) [Compound 171, 5-(4-((4-((R)-3-(4-amino-3-(4-phenoxyphenyl)-1H-pyrazolo[3,4-d]pyrimidin-1-yl)-[1,4′-bipiperidine]-1′-carbonyl)piperazin-1-yl)methyl)piperidin-1-yl)-2-(2,6-dioxopiperidin-3-yl)isoindoline-1,3-dione], the IC50 in assay [1] fell in the range of 1000 to 10000 nM. Further, in assay [2], the IC50 lay within 1000 to 10000 nM. Moreover, in assay [3], the Dmax is more than 90% and the 50% degradation concentration (DC50) was 10 to 50 nM.
As for `Nc1ncnc2c1c(-c1ccc(Oc3ccccc3)cc1)nn2[C@@H]1CCCN(C2CCN(C(=O)N3CCN(CC4CCN(c5ccc6c(c5)CN(C5CCC(=O)NC5=O)C6=O)CC4)CC3)CC2)C1` (stereo partly drawn) [Compound 172, 3-(5-(4-((4-((R)-3-(4-amino-3-(4-phenoxyphenyl)-1H-pyrazolo[3,4-d]pyrimidin-1-yl)-[1,4′-bipiperidine]-1′-carbonyl)piperazin-1-yl)methyl)piperidin-1-yl)-1-oxoisoindolin-2-yl)piperidine-2,6-dione], the IC50 in assay [1] was in the range of 1000 to 10000 nM. Further, the IC50 in assay [2] fell in the range of 1000 to 10000 nM. In assay [3], this compound showed a Dmax of more than 90% and a DC50 of 10 to 50 nM.
`Nc1ncnc2c1c(-c1ccc(Oc3ccccc3)cc1)nn2[C@@H]1CCCN(C2CCN(C(=O)N3CCC(CN4CCC(c5ccc6c(c5)C(=O)N(C5CCC(=O)NC5=O)C6=O)CC4)CC3)CC2)C1` (stereo partly drawn) [Compound 173, 5-(1-((1-((R)-3-(4-amino-3-(4-phenoxyphenyl)-1H-pyrazolo[3,4-d]pyrimidin-1-yl)-[1,4′-bipiperidine]-1′-carbonyl)piperidin-4-yl)methyl)piperidin-4-yl)-2-(2,6-dioxopiperidin-3-yl)isoindoline-1,3-dione]: the IC50 in assay [1] lay within 1000 to 10000 nM. In assay [2], the IC50 was less than 1000 nM. Besides, in assay [3], the Dmax is more than 90% and the DC50 was in the range of 10 to 50 nM.

As a reminder, the Dmax is the greatest extent of degradation seen. For orientation: DC50 means the concentration at which degradation of the target reaches its halfway point. A low value points to a more potent degrader.

The record behind these values is US12139492B2 (Endotarget Inc., priority 2021, dated 2024).
